The text below walks through data of patent publication US11224224B2, “Thiobenzoimidazole as fungicides” (REDAG CROP PROTECTION LTD, priority 2017, dated 2022).

Values after ≈ are worked out from the molar mass of the structure shown.

What all share (type): cell-based
In assay [1] the test system is Phytophthora cactorum. As to the kind of experiment: 96 well plate test (amended agar with spores). The following applies: 96 well plate, 20, 2, 0.2 and 0.02 ppm, 1% PDA, 2 to 3 days (cells marked *), read-out: EC50 Phytophthora spp. (*96 well plate format vs. Phytophthora cactorum). The method, then: Compounds were screened in 96 well plates with 10 compounds per plate. Each compound was screened using agar amended to 20, 2, 0.2 and 0.02 ppm, with Proline at 50 and 10 ppm and 0.2% DMSO used as controls. Each test concentration and standard was replicated twice on a plate. Compounds were screened against Phytophthora cactorum. The agar used in the test is a 1% PDA. 1000 spores/mL agar were added to the appropriate agar.
A ×10 stock solution in 2% DMSO was produced for each dose i.e. 200, 20, 2 and 0.2 ppm, and 10 μl of this added to the appropriate wells on the plate. An equivalent amount of 2% DMSO and Proline stock at 500 and 100 ppm were added for the controls. To each well 90 μl of the appropriate agar spore suspension was added to give the required final well concentrations. Plates were incubated at room temperature (18° C.) and assessed after 2 to 3 days. The amount of pathogen growth in each well was compared to the DMSO controls and an EC50 concentration was calculated. The results are provided in Table 1 in which G represents an EC50 above 20 ppm, F represents an EC50 of 1-20 ppm and E represents an EC50 less than 1 ppm.

The test system of assay [2] is Pythium ultimum. The assay is described as follows: Amended agar assay (PDA), colony growth. The following applies: Globisporangium ultimum; 20 ppm in amended PDA, 18° C., reduction in colony growth vs control plate.
Assay [3] concerns oomycete plant pathogens. As to the kind of experiment: Fungicidal activity testing, overall summary. The following applies: summary statement on Table 1. The method, then:
The activity of compounds of the invention was assessed by testing against certain oomycete plant pathogens and representative data are presented in Table 1.

For assay [4], the system named is Pythium ultimum. The assay is described as follows: Amended agar assay (PDA), colony growth. The following applies: Globisporangium ultimum; read-out: % control Pythium ultimum 2 ppm.
The subject of assay [5] is Phytophthora cinnamomi. The assay is described as follows: Amended agar assay (PDA), colony growth. The following applies: Phytophthora cinnamomi; 20 ppm in amended PDA, 18° C., reduction in colony growth vs control plate; read-out: % control Phytophthora spp. 20 ppm.

Regarding `Cn1nnnc1-n1c(SCc2nccs2)nc2ccccc21` [Example 34], the EC50 in assay [1] is 1 to 20 µg/mL (≈ 3.04 to 60.7 µM). For the same molecule, the inhibition of growth at 20 ppm in assay [2] is above 99%. For the same molecule, in assay [3], the “control over the pathogens tested” value is “good to excellent control”. In addition, the inhibition of growth at 2 ppm in assay [4] fell in the range of 50 to 99%.
The like results for `Cc1ccnc(CSc2nc3ccccc3n2-c2nnnn2C)c1` [Example 37] were, in that order, 1 to 20 µg/mL (≈ 2.96 to 59.3 µM), above 99%, “good to excellent control” and 50 to 99%.
Take `Cn1nnnc1-n1c(SCc2nccs2)nc2ccc(F)cc21` [Example 48]: the half-maximal effective concentration (EC50) in assay [1] lay in the range of 1 to 20 µg/mL (≈ 2.88 to 57.6 µM). In addition, the “control over the pathogens tested” value in assay [3] is “good to excellent control”. For the same molecule, the inhibition of growth at 2 ppm in assay [4] was above 99%.
With `Clc1cncnc1-n1c(SCc2ccccn2)nc2ccccc21` [Example 59, 1-(5-Chloropyrimidin-4-yl)-2-((pyridin-2-ylmethyl)thio)-1H-benzo[d]imidazole], the concentration for a half-maximal effect (EC50) in assay [1] is 1 to 20 µg/mL (≈ 2.83 to 56.5 µM). The inhibition of growth at 20 ppm in assay [2] and in assay [5] was above 99% in each case. In assay [3], the “control over the pathogens tested” value is given as “good to excellent control”. For the same molecule, in assay [4], the inhibition of growth at 2 ppm is above 99%.
Take `Cn1nnnc1-n1c(SCc2cccc(NC(=O)C3CC3)n2)nc2c(Cl)cccc21` [Example 63, N-(6-(((4-Chloro-1-(1-methyl-1H-tetrazol-5-yl)-1H-benzo[d]imidazol-2-yl)thio)methyl)pyridin-2-yl)cyclopropanecarboxamide]: in assay [1], the EC50 lay in the range of 1 to 20 µg/mL (≈ 2.27 to 45.4 µM). In addition, the “control over the pathogens tested” value in assay [3] is “good to excellent control”. In assay [4], the inhibition of growth at 2 ppm was above 99%.
With `COc1ccnc(CSc2nc3cc(Cl)ccc3n2-c2nnnn2C)c1` [Example 66], in assay [1], the EC50 was in the range of 1 to 20 µg/mL (≈ 2.58 to 51.6 µM). Also, in assay [3], the “control over the pathogens tested” value was “good to excellent control”. For the same molecule, the inhibition of growth at 2 ppm in assay [4] is above 99%.
The like results for `Cn1nnnc1-n1c(SCc2ccccn2)nc2cc(Cl)ccc21` [Example 67] were, in that order, 1 to 20 µg/mL (≈ 2.79 to 55.9 µM), “good to excellent control” and above 99%.
On the same counts, the results for `Cc1ccc(CSc2nc3ccccc3n2-c2nnnn2C)nc1` [Example 69] are 1 to 20 µg/mL (≈ 2.96 to 59.3 µM), “good to excellent control” and above 99%.
The like results for `Cn1nnnc1-n1c(SCc2cc(C#N)ccn2)nc2ccccc21` [Example 70] were, in that order, 1 to 20 µg/mL (≈ 2.87 to 57.4 µM), “good to excellent control” and above 99%.
As to `COc1ccc(CSc2nc3ccccc3n2-c2nnnn2C)nc1` [Example 73], the EC50 in assay [1] fell in the range of 1 to 20 µg/mL (≈ 2.83 to 56.6 µM). The “control over the pathogens tested” value in assay [3] is reported as “good to excellent control”. Moreover, the inhibition of growth at 2 ppm in assay [4] was above 99%.
Turning to `Cn1nnnc1-n1c(SCc2ccc(Br)cn2)nc2ccccc21` [Example 75], the EC50 in assay [1] lay in the range of 1 to 20 µg/mL (≈ 2.49 to 49.7 µM). The “control over the pathogens tested” value in assay [3] was “good to excellent control”. For the same molecule, in assay [4], the inhibition of growth at 2 ppm is above 99%.
On the same counts, the results for `Cn1nnnc1-n1c(SCc2ccc(Cl)cn2)nc2ccccc21` [Example 76] are 1 to 20 µg/mL (≈ 2.79 to 55.9 µM), “good to excellent control” and above 99%.
On the same counts, the results for `Cn1nnnc1-n1c(SCc2cc(C(F)(F)F)ccn2)nc2ccccc21` [Example 78] are 1 to 20 µg/mL (≈ 2.56 to 51.1 µM), “good to excellent control” and above 99%.
The like results for `Cn1nnnc1-n1c(SCc2cccc(NC(=O)OC(C)(C)C)n2)nc2cccc(Cl)c21` [Example 83] were, in that order, 1 to 20 µg/mL (≈ 2.11 to 42.3 µM), “good to excellent control” and 50 to 99%.
As for `COc1cc(F)cc2c1nc(SCc1cccc(NC(=O)OC(C)(C)C)n1)n2-c1nnnn1C` [Example 84], the 50% effective concentration (EC50) in assay [1] fell in the range of 1 to 20 µg/mL (≈ 2.06 to 41.1 µM). The “control over the pathogens tested” value in assay [3] is reported as “good to excellent control”. For the same molecule, in assay [4], the inhibition of growth at 2 ppm was above 99%.
The like results for `Cn1nnnc1-n1c(SCc2cccc(NCc3ccccc3)n2)nc2ccccc21` [Example 88, N-Benzyl-6-(((1-(1-methyl-1H-tetrazol-5-yl)-1H-benzo[d]imidazol-2-yl)thio)methyl)pyridin-2-amine] were, in that order, below 1 µg/mL, “good to excellent control” and above 99%.

Usually EC50 stands for the concentration that produces a half-maximal response.
